Source: patent US6737383B1, “Herbicidal oxadiazolidines” (priority 1999, dated 2004)

Legend:
soybean = test: Test B pre/postemergence soybean; assay type: in vivo, Glycine max
Summary of the method: (§1)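 Response is a visual 0-to-10 score relative to untreated plants, where 0 means no effect and 10 means complete control, taken twelve to sixteen days after application. Treatments went onto soil at planting and onto foliage of 1- to 4-leaf plants, using a surfactant-containing non-phytotoxic solvent.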

crabgrass = test: Test B pre/postemergence crabgrass; assay type: in vivo, Digitaria sanguinalis
Summary of the method: as §1

corn = test: Test B pre/postemergence corn; assay type: in vivo, Zea mays
Summary of the method: as §1

sugar beet = test: Test B pre/postemergence sugar beet; assay type: in vivo, Beta vulgaris
Summary of the method: as §1

rape = test: Test B pre/postemergence rape; assay type: in vivo, Brassica napus
Summary of the method: as §1

pigweed = test: Test B pre/postemergence pigweed; assay type: in vivo, Amaranthus retroflexus
Summary of the method: as §1

wild oat = test: Test B pre/postemergence wild oat; assay type: in vivo, Avena fatua
Summary of the method: as §1

cocklebur = test: Test B pre/postemergence cocklebur; assay type: in vivo, Xanthium strumarium
Summary of the method: as §1

purple nutsedge = test: Test B pre/postemergence purple nutsedge; assay type: in vivo, Cyperus rotundus
Summary of the method: as §1

velvetleaf = test: Test B pre/postemergence velvetleaf; assay type: in vivo, Abutilon theophrasti
Summary of the method: as §1

wheat = test: Test B pre/postemergence wheat; assay type: in vivo, Triticum aestivum
Summary of the method: as §1

blackgrass = test: Test B pre/postemergence blackgrass; assay type: in vivo, Alopecurus myosuroides
Summary of the method: as §1

bedstraw = test: Test B pre/postemergence bedstraw; assay type: in vivo, Galium aparine; details: Preemergence
Summary of the method: as §1

surinam grass = test: Test B pre/postemergence surinam grass; assay type: in vivo, Brachiaria decumbens
Summary of the method: as §1

morningglory = test: Test B pre/postemergence morningglory; assay type: in vivo, Ipomoea hederacea
Summary of the method: as §1

giant foxtail = test: Test B pre/postemergence giant foxtail; assay type: in vivo, Setaria faberii
Summary of the method: as §1

[1] = Postemergence, Rate 125 g/ha, scale of 0 to 10 where 0 is no effect and 10 is complete control
[2] = Preemergence, Rate 125 g/ha, scale of 0 to 10 where 0 is no effect and 10 is complete control
[3] = Preemergence, Rate 250 g/ha, scale 0 (no effect) to 10 (complete control)
[4] = Rate 250 g/ha, Postemergence, scale 0 to 10, 0 is no effect, 10 is complete control
[5] = Rate 500 g/ha, Postemergence, scale 0 to 10, 0 is no effect, 10 is complete control
[6] = Rate 500 g/ha, Preemergence, scale 0 to 10 (0 no effect, 10 complete control)
[7] = Rate 1000 g/ha, Preemergence, scale 0 to 10 (0 no effect, 10 complete control)
[8] = Postemergence, Rate 1000 g/ha, scale 0 to 10 (0 no effect, 10 complete control)

CCOP(=O)(Cn1c(=O)on(C(=O)N(c2ccc(F)cc2F)C(C)C)c1=O)OCC [Compound 736]
4: Soybean plant response rating (soybean; [4]) | Crabgrass plant response rating (crabgrass; [3]) | Crabgrass plant response rating (crabgrass; [5]) | Corn plant response rating (corn; [1]) | Corn plant response rating (corn; [8]) | Corn plant response rating (corn; [5]) | Velvetleaf plant response rating (velvetleaf; [6]) | Blackgrass plant response rating (blackgrass; [3])
9: Crabgrass plant response rating (crabgrass; [6]) | Plant response rating, Crabgrass (crabgrass; [7]) | Plant response rating, Corn (corn; [7]) | Wild oats plant response rating (wild oat; [3]) | Wild oats plant response rating (wild oat; [6]) | Plant response rating, Wheat (wheat; [7]) | Blackgrass plant response rating (blackgrass; [6]) | Plant response rating, B. signalgrass (surinam grass; [7]) | Giant foxtail plant response rating (giant foxtail; [3]) | Giant foxtail plant response rating (giant foxtail; [6])
8: Plant response rating, Nutsedge (purple nutsedge; [7]) | Wheat plant response rating (wheat; [6]) | Bedstraw plant response rating (bedstraw; Rate 500 g/ha, scale 0 to 10 (0 no effect, 10 complete control)) | B. signalgrass plant response rating (surinam grass; [6]) | Plant response rating, Giant foxtail (giant foxtail; [2]) | Plant response rating, Giant foxtail (giant foxtail; [7])
0: Plant response rating, Soybean (soybean; [2]) | Sugarbeets plant response rating (sugar beet; [1]) | Plant response rating, Sugarbeets (sugar beet; [2]) | Sugarbeets plant response rating (sugar beet; [3]) | Sugarbeets plant response rating (sugar beet; [4]) | Sugarbeets plant response rating (sugar beet; [5]) | Rape plant response rating (rape; [1]) | Rape plant response rating (rape; [8]) | Plant response rating, Rape (rape; [2]) | Rape plant response rating (rape; [3]) | Rape plant response rating (rape; [4]) | Rape plant response rating (rape; [5]) | Plant response rating, Redroot pigweed (pigweed; [2]) | Redroot pigweed plant response rating (pigweed; [5]) | Cocklebur plant response rating (cocklebur; [1]) | Plant response rating, Cocklebur (cocklebur; [2]) | Cocklebur plant response rating (cocklebur; [4]) | Nutsedge plant response rating (purple nutsedge; [1]) | Plant response rating, Nutsedge (purple nutsedge; [2]) | Nutsedge plant response rating (purple nutsedge; [3]) | Nutsedge plant response rating (purple nutsedge; [4]) | Plant response rating, Velvetleaf (velvetleaf; [2]) | Velvetleaf plant response rating (velvetleaf; [3]) | Blackgrass plant response rating (blackgrass; [1]) | Plant response rating, Bedstraw (bedstraw; Rate 125 g/ha, scale of 0 to 10 where 0 is no effect and 10 is complete control) | Bedstraw plant response rating (bedstraw; Rate 250 g/ha, scale 0 (no effect) to 10 (complete control)) | B. signalgrass plant response rating (surinam grass; [1]) | B. signalgrass plant response rating (surinam grass; [4]) | B. signalgrass plant response rating (surinam grass; [5]) | Plant response rating, Morningglory (morningglory; [2])
5: Plant response rating, Sugarbeets (sugar beet; [7]) | Nutsedge plant response rating (purple nutsedge; [8]) | Morningglory plant response rating (morningglory; [5])
6: Crabgrass plant response rating (crabgrass; [8]) | Morningglory plant response rating (morningglory; [1]) | Morningglory plant response rating (morningglory; [4]) | Morningglory plant response rating (morningglory; [6]) | Plant response rating, Morningglory (morningglory; [7]) | Giant foxtail plant response rating (giant foxtail; [8])
10: Plant response rating, Wild oats (wild oat; [7]) | Cocklebur plant response rating (cocklebur; [8]) | Nutsedge plant response rating (purple nutsedge; [6]) | Plant response rating, Blackgrass (blackgrass; [7])
2: Soybean plant response rating (soybean; [3]) | Soybean plant response rating (soybean; [6]) | Plant response rating, Corn (corn; [2]) | Corn plant response rating (corn; [3]) | Corn plant response rating (corn; [6]) | Rape plant response rating (rape; [6]) | Plant response rating, Rape (rape; [7]) | Redroot pigweed plant response rating (pigweed; [1]) | Redroot pigweed plant response rating (pigweed; [3]) | Redroot pigweed plant response rating (pigweed; [6]) | Plant response rating, Redroot pigweed (pigweed; [7]) | Wild oats plant response rating (wild oat; [1]) | Plant response rating, Wild oats (wild oat; [2]) | Cocklebur plant response rating (cocklebur; [3]) | Cocklebur plant response rating (cocklebur; [6]) | Plant response rating, Cocklebur (cocklebur; [7]) | Nutsedge plant response rating (purple nutsedge; [5]) | Velvetleaf plant response rating (velvetleaf; [1]) | Velvetleaf plant response rating (velvetleaf; [4]) | Wheat plant response rating (wheat; [1]) | Wheat plant response rating (wheat; [4]) | Wheat plant response rating (wheat; [5]) | Plant response rating, Blackgrass (blackgrass; [2]) | Blackgrass plant response rating (blackgrass; [4]) | Morningglory plant response rating (morningglory; [3]) | Giant foxtail plant response rating (giant foxtail; [1]) | Giant foxtail plant response rating (giant foxtail; [4])
7: Blackgrass plant response rating (blackgrass; [8]) | B. signalgrass plant response rating (surinam grass; [8]) | Morningglory plant response rating (morningglory; [8]) | Giant foxtail plant response rating (giant foxtail; [5])
3: Soybean plant response rating (soybean; [1]) | Soybean plant response rating (soybean; [5]) | Plant response rating, Soybean (soybean; [7]) | Crabgrass plant response rating (crabgrass; [1]) | Plant response rating, Crabgrass (crabgrass; [2]) | Crabgrass plant response rating (crabgrass; [4]) | Corn plant response rating (corn; [4]) | Sugarbeets plant response rating (sugar beet; [6]) | Redroot pigweed plant response rating (pigweed; [8]) | Wild oats plant response rating (wild oat; [4]) | Wild oats plant response rating (wild oat; [5]) | Cocklebur plant response rating (cocklebur; [5]) | Velvetleaf plant response rating (velvetleaf; [5]) | Plant response rating, Velvetleaf (velvetleaf; [7]) | Plant response rating, Wheat (wheat; [2]) | Wheat plant response rating (wheat; [3]) | Blackgrass plant response rating (blackgrass; [5]) | Plant response rating, B. signalgrass (surinam grass; [2]) | B. signalgrass plant response rating (surinam grass; [3])
